Measurements as given in patent EP0320002A1, “Inhalant” (KYORIN SEIYAKU KABUSHIKI KAISHA, priority 1987, dated 1989).
In brackets after ≈: the same amount, converted by molar mass.

Assay: solubility of ibudilast in water
Type: physicochemical

CC(C)C(=O)c1c(C(C)C)nn2ccccc12 [ibudilast, 3-isobutyryl-2-isopropylpyrazolo[1,5-a]pyridine]
solubility: 150 µg/mL (≈ 651 µM)
